Laboratory results as given in PubChem BioAssay (NCI).
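Protocol summary: plate cells (96-well), add compound at 5 concentrations, incubate 48 h, interpolate endpoints linearly. Abbreviation: GI50, concentration required for 50% inhibition of growth. TGI marks complete inhibition of growth.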

Assays:
Experiment in all cases: NCI-60 cell line screen, 48 h
OVCAR-8 ovarian = tested on: OVCAR-8 ovarian
SF-268 CNS = tested on: SF-268 CNS
UACC-62 melanoma = tested on: UACC-62 melanoma
A549 NSCLC = tested on: A549 NSCLC
SK-OV-3 ovarian = tested on: SK-OV-3 ovarian
SW-620 colon = tested on: SW-620 colon
NCI-H23 lung = tested on: NCI-H23 lung
SF-295 CNS = tested on: SF-295 CNS
UO-31 renal = tested on: UO-31 renal
MDA-MB-231 breast = tested on: MDA-MB-231 breast

| Compound | TGI (OVCAR-8 ovarian) [µM] | TGI (SF-268 CNS) [µM] | TGI (UACC-62 melanoma) [µM] | TGI (A549 NSCLC) [µM] | TGI (SK-OV-3 ovarian) [µM] | TGI (SW-620 colon) [µM] | TGI (NCI-H23 lung) [µM] | TGI (SF-295 CNS) [µM] | TGI (UO-31 renal) [µM] | GI50 (OVCAR-8 ovarian) [µM] | GI50 (SF-268 CNS) [µM] | GI50 (UACC-62 melanoma) [µM] | GI50 (A549 NSCLC) [µM] | GI50 (SK-OV-3 ovarian) [µM] | GI50 (NCI-H23 lung) [µM] | GI50 (SF-295 CNS) [µM] | GI50 (UO-31 renal) [µM] | GI50 (MDA-MB-231 breast) [µM] | TGI (MDA-MB-231 breast) [µM] | GI50 (SW-620 colon) [µM] |
| --- | --- | --- | --- | --- | --- | --- | --- | --- | --- | --- | --- | --- | --- | --- | --- | --- | --- | --- | --- | --- |
| CC1(C)C2=CCCC(=O)[C@@]2(C)CC[C@@H]1O | > 100 | > 100 | > 100 | > 100 | > 100 | > 100 | > 100 | > 100 | > 100 | – | – | – | – | – | – | – | – | – | – | – |
| O=C(CC1(O)C(=O)Nc2c(Cl)cc(Cl)cc21)c1ccc([N+](=O)[O-])cc1 (stereo not given) | > 87.9 | > 100 | > 53.6 | > 100 | > 100 | > 63 | > 78.9 | > 100 | 35.1 | – | – | – | – | – | – | – | – | – | – | – |
| CC[C@@]1(O)C(=O)OCc2c1cc1n(c2=O)Cc2cc3cccc(N)c3nc2-1 | > 100 | > 100 | 31.7 | > 100 | 29.7 | – | 31.5 | 23.5 | > 100 | 12.1 | 2.51 | 4.74 | 7.32 | 5.13 | 5.81 | 4.04 | 8.44 | – | – | – |
| CCCCCCCCC1C(C)c2c([nH]c3ccccc23)C2C(=O)N(c3ccccc3)C(=O)C21 (stereo not given) | 28.4 | – | 36.4 | 38 | 51.1 | 41.5 | 14.7 | 29.8 | 28.5 | – | – | – | – | – | – | – | – | – | – | – |
| CN(C)c1ccc2cc3c(cc2c1)Oc1ccccc1N3.[Cl][Zn][Cl] | > 100 | 27.2 | 13.4 | 51.5 | 33.3 | – | 21.7 | 39.7 | 3.3 | 5.64 | 13.6 | 3.43 | 20.9 | 17 | 4.74 | 18 | 1.44 | 1.83 | 4.51 | – |
| NS(=O)(=O)c1ccc(-n2nc(-c3ccccc3)cc2-c2cc(O)ccc2O)cc1 | > 100 | > 100 | > 100 | > 100 | – | > 100 | > 100 | > 100 | > 100 | > 100 | > 100 | 44.9 | > 100 | – | 77.1 | > 100 | > 100 | 25.6 | 72 | > 100 |
| C=C(C)C1CC=C(C)C(O)([C@@]2(O)C[C@H](C(=C)C)CC=C2C)C1 (stereo not given in full) | 35.5 | > 100 | 55.9 | > 100 | 64.1 | > 100 | 43.3 | 48.5 | 55.9 | – | – | – | – | – | – | – | – | – | – | – |
| CCC1=CCC(P(=O)(c2ccccc2)c2ccccc2)CC1C (stereo not given) | > 100 | > 100 | > 100 | > 100 | > 100 | > 100 | > 100 | > 100 | 60.5 | – | – | – | – | – | – | – | – | – | – | – |
| Nc1nc(N)c(CCCCc2ccccc2)c(/C=C/c2ccc([N+](=O)[O-])cc2)n1 | 12.7 | 48.2 | 7.46 | 19.3 | 39.1 | 5.91 | 33.4 | 14.5 | 8.51 | – | – | – | – | – | – | – | – | – | – | – |
| CCN(CC)CCCNc1nccc2c(C)c3[nH]c4ccncc4c(=O)c3cc12 | 2.36 | 4.46 | 3.72 | 14.2 | 16 | 16.1 | 7.34 | 28.4 | 43.4 | – | – | – | – | – | – | – | – | – | – | – |
| CCOC(=O)Nc1cc2c(c(N)n1)N=C(c1ccccc1)CN2 | > 100 | 34.8 | – | 18.1 | 17.5 | > 53 | – | 13.5 | – | – | < 0.0001 | – | < 0.0001 | 0.0207 | < 0.0001 | < 0.0001 | 0.107 | < 0.0001 | 0.00463 | < 0.0001 |
| O=c1oc2c(O)c(O)cc3c(=O)oc4c(O)c(O)cc1c4c23 | 88.7 | > 100 | > 100 | > 100 | > 100 | > 100 | > 100 | > 100 | > 100 | – | – | – | – | – | – | > 100 | – | – | – | > 100 |
| Cc1cc(=O)n2c(cc3cccccc32)n1 | > 100 | > 100 | > 100 | > 100 | – | > 100 | > 100 | > 100 | > 100 | – | – | – | – | – | – | – | – | – | – | – |
| CC1(C)C=C(N2CCN(C3=CC(C)(C)NC(C)(C)C3)CC2)CC(C)(C)N1 | > 100 | > 100 | > 100 | > 100 | > 100 | > 100 | > 100 | > 100 | > 100 | – | – | – | – | – | – | – | – | – | – | – |
| CC(C)c1ccc(C(O)(C(=O)O)c2ccc(C(C)C)cc2)cc1 | > 100 | > 100 | > 100 | > 100 | > 100 | > 100 | > 100 | 95.5 | > 100 | – | – | – | – | – | – | – | – | – | – | – |
| c1ccc(N2CCN(CCCN3CCc4c([nH]c5ccccc45)C3c3cccnc3)CC2)cc1 (stereo not given) | > 100 | – | > 100 | > 100 | > 100 | > 100 | > 100 | > 100 | > 100 | – | – | – | – | – | – | – | – | – | – | – |
| COc1ccc2[nH]cc(C3(c4c[nH]c5ccc(OC)cc45)C(=O)Nc4ccc(Cl)cc43)c2c1 | 18.7 | 57.9 | > 100 | – | 23.4 | 49.4 | 23.2 | 6.26 | > 100 | 3.36 | 4.81 | 3.61 | – | 5.42 | 3.03 | 2.1 | 2.27 | 2.08 | 5.43 | 3.89 |
| CC(=O)OC(C)(C)C[N+](=O)[O-] | > 100 | > 100 | – | > 100 | > 100 | > 100 | > 100 | > 100 | > 100 | – | – | – | – | – | – | – | – | – | – | – |
| Cc1nccc2c3ccc(OCc4cn(-c5ccc(Br)cc5)nn4)cc3n(CCCc3ccccc3)c12 | 5.09 | 5.85 | 7.08 | – | > 100 | – | – | > 100 | 3.01 | 2.12 | 2.17 | 2.46 | – | 31.2 | – | > 100 | 1.41 | – | – | – |
| CN(CCc1ccccn1)/[N+]([O-])=N/O (tested in a mixture with another compound) | > 100 | > 100 | > 100 | > 100 | – | > 100 | > 100 | > 100 | > 100 | – | – | – | – | – | – | – | – | – | – | – |
